Results published in paper PMC10035947, “Development of novel anilinoquinazoline-based carboxylic acids as non-classical carbonic anhydrase IX and XII inhibitors” (Journal of Enzyme Inhibition and Medicinal Chemistry, 2023).
Read-outs that look alike come from different tables or passages of the source.

Assays:
HOP-92 = assay: NCI SRB assay; type: cell-based, human; conditions: for CC50: read-out: LC50 (the source's name)
[1] = tested on: 59 human cancer cell lines representing nine tumour subpanels; assay: NCI SRB assay, panel and subpanel summaries; conditions: for GI50: Homo sapiens; for Selectivity index: full panel MG-MID / subpanel MG-MID
NCI/ADR-RES = assay: NCI SRB assay; type: cell-based, human; conditions: for CC50: read-out: LC50 (the source's name)
LOX IMVI = assay: NCI SRB assay; type: cell-based, human
UACC-62 = assay: NCI SRB assay; type: cell-based, human
EKVX = assay: NCI SRB assay; type: cell-based, human; conditions: for GI50 / LC50 (concentration killing 50% of cells) / TGI: 5-dose
SW-620 = assay: NCI SRB assay; type: cell-based, human
PC-3 = assay: NCI SRB assay; type: cell-based, human; conditions: for CC50: read-out: LC50 (the source's name)
TK-10 = assay: NCI SRB assay; type: cell-based, human; conditions: for CC50: read-out: LC50 (the source's name)
SK-OV-3 = assay: NCI SRB assay; type: cell-based, human; conditions: for CC50: read-out: LC50 (the source's name)
hCA II = molecular target: T1, hCA II (Homo sapiens, UniProt P00918); assay: stopped flow CO2 hydrase assay; type: biochemical; conditions: mean from 3 assays
T1 construct: made in house
In short: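 Stopped-flow CO2 hydration with phenol red (0.2 mM) at 557 nm in 20 mM Hepes pH 7.5, 20 mM Na2SO4, CO2 1.7–17 mM, recombinant enzyme. Inhibitor preincubated 15 min at room temperature; uncatalyzed rate subtracted, Ki via Cheng-Prusoff, mean of ≥3 determinations.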

NCI-H226 = assay: NCI SRB assay; type: cell-based, human
SN12C = assay: NCI SRB assay; type: cell-based, human; conditions: Homo sapiens, SN12C, 5-dose; for CC50: read-out: LC50 (the source's name)
[2] = Homo sapiens, HOP-92, HOP-92, 5-dose

Cc1ccc(-c2nc(Nc3ccccc3C(=O)O)c3ccccc3n2)cc1 [6b, 2-((2-(p-Tolyl)quinazolin-4-yl)amino)benzoic acid]
GI% (HOP-92; HOP-92, 10 μM): 120% | Growth Percent (HOP-92; HOP-92, 1.00E-5 Molar): -19.52% | GI50 (HOP-92; HOP-92, 5-dose): 2.9 µM | TGI (HOP-92; HOP-92, 5-dose): 29.3 µM | TGI (HOP-92; HOP-92, 5-dose, listed as D - 835857): 2.93E-5 Molar | CC50 (HOP-92; HOP-92, 5-dose): < 100 µM | GI50 (HOP-92; [2]): 2.85 µM | CC50 (HOP-92; [2]): > 100 µM | Mean GI % ([1]; 10 μM, all cell lines): 84% | Mean Growth Percent ([1]; 1.00E-5 Molar, all cell lines): 15.81% | GI50 ([1]; read-out: Full panel MG-MID (GI50), full panel): 12 µM | GI50 ([1]; read-out: MG-MID (median GI50), Breast cancer subpanel): 11 µM | GI50 ([1]; read-out: MG-MID (median GI50), CNS cancer subpanel): 8.04 µM | GI50 ([1]; read-out: MG-MID (median GI50), Colon cancer subpanel): 13.7 µM | GI50 ([1]; read-out: MG-MID (median GI50), Leukaemia subpanel): 8.68 µM | GI50 ([1]; read-out: MG-MID (median GI50), Melanoma subpanel): 11.7 µM | GI50 ([1]; read-out: MG-MID (median GI50), Non-small cell lung cancer subpanel): 9.24 µM | GI50 ([1]; read-out: MG-MID (median GI50), Ovarian cancer subpanel): 15.7 µM | GI50 ([1]; read-out: MG-MID (median GI50), Prostate cancer subpanel): 15.2 µM | GI50 ([1]; read-out: MG-MID (median GI50), Renal cancer subpanel): 14.7 µM | Selectivity index ([1]; Breast cancer): 1.09 | Selectivity index ([1]; CNS cancer): 1.49 | Selectivity index ([1]; Colon cancer): 0.87 | Selectivity index ([1]; Leukaemia): 1.38 | Selectivity index ([1]; Melanoma): 1.02 | Selectivity index ([1]; Non-small cell lung cancer): 1.29 | Selectivity index ([1]; Ovarian cancer): 0.76 | Selectivity index ([1]; Prostate cancer): 0.78 | Selectivity index ([1]; Renal cancer): 0.81 | GI% (NCI/ADR-RES; 10 μM): 95% | Growth Percent (NCI/ADR-RES; 1.00E-5 Molar): 5.16% | TGI (NCI/ADR-RES; 5-dose): 98.5 µM | TGI (NCI/ADR-RES; 5-dose, listed as D - 835857): 9.85E-5 Molar | CC50 (NCI/ADR-RES; 5-dose): < 100 µM | GI50 (NCI/ADR-RES; Homo sapiens, 5-dose): 16.8 µM | CC50 (NCI/ADR-RES; Homo sapiens, 5-dose): > 100 µM | GI% (LOX IMVI; 10 μM): 91% | Growth Percent (LOX IMVI; 1.00E-5 Molar): 8.57% | TGI (LOX IMVI; 5-dose): 31.6 µM | TGI (LOX IMVI; 5-dose, listed as D - 835857): 3.16E-5 Molar | GI50 (LOX IMVI; Homo sapiens, 5-dose): 10.2 µM | CC50 (LOX IMVI; Homo sapiens, 5-dose, read-out: LC50 (the source's name)): 97.7 µM | GI50 (UACC-62; Homo sapiens, UACC-62, 5-dose): 10.2 µM | CC50 (UACC-62; Homo sapiens, UACC-62, 5-dose, read-out: LC50 (the source's name)): 71.6 µM | GI% (UACC-62; UACC-62, 10 μM): 89% | Growth Percent (UACC-62; UACC-62, 1.00E-5 Molar): 11.04% | TGI (UACC-62; UACC-62, 5-dose): 27.0 µM | TGI (UACC-62; UACC-62, 5-dose, listed as D - 835857): 2.70E-5 Molar | GI% (EKVX; 10 μM): 87% | Growth Percent (EKVX; 1.00E-5 Molar): 13.07% | GI50 (EKVX): 8.9 µM | LC50 (concentration killing 50% of cells) (EKVX): < 100 µM | TGI (EKVX): 56.2 µM | TGI (EKVX; listed as D - 835857): 5.62E-5 Molar | GI50 (EKVX; Homo sapiens): 8.89 µM | LC50 (concentration killing 50% of cells) (EKVX; Homo sapiens): > 100 µM | LC50 (SW-620; Homo sapiens, SW-620, SW-620, 5-dose): > 100 µM | GI50 (SW-620; Homo sapiens, SW-620, 5-dose): 18.2 µM | GI% (SW-620; SW-620, 10 μM): 86% | Growth Percent (SW-620; SW-620, 1.00E-5 Molar): 14.46% | LC50 (SW-620; SW-620, 5-dose): < 100 µM | TGI (SW-620; SW-620, 5-dose): <100 µM | TGI (SW-620; SW-620, 5-dose, listed as D - 835857): > 1.00E-4 Molar | CC50 (PC-3; Homo sapiens, PC-3, PC-3, 5-dose): > 100 µM | GI50 (PC-3; Homo sapiens, PC-3, 5-dose): 12.7 µM | GI% (PC-3; PC-3, 10 μM): 84% | Growth Percent (PC-3; PC-3, 1.00E-5 Molar): 15.75% | TGI (PC-3; PC-3, 5-dose): <100 µM | TGI (PC-3; PC-3, 5-dose, listed as D - 835857): > 1.00E-4 Molar | CC50 (PC-3; PC-3, 5-dose): < 100 µM | CC50 (TK-10; Homo sapiens, TK-10, TK-10, 5-dose): > 100 µM | GI50 (TK-10; Homo sapiens, TK-10, 5-dose): 29.3 µM | GI% (TK-10; TK-10, 10 μM): 41% | Growth Percent (TK-10; TK-10, 1.00E-5 Molar): 58.93% | TGI (TK-10; TK-10, 5-dose): <100 µM | TGI (TK-10; TK-10, 5-dose, listed as D - 835857): > 1.00E-4 Molar | CC50 (TK-10; TK-10, 5-dose): < 100 µM | CC50 (SK-OV-3; Homo sapiens, SK-OV-3, SK-OV-3, 5-dose): > 100 µM | GI50 (SK-OV-3; Homo sapiens, SK-OV-3, 5-dose): 11.9 µM | GI% (SK-OV-3; SK-OV-3, 10 μM): 69% | Growth Percent (SK-OV-3; SK-OV-3, 1.00E-5 Molar): 31.32% | TGI (SK-OV-3; SK-OV-3, 5-dose): 55.3 µM | TGI (SK-OV-3; SK-OV-3, 5-dose, listed as D - 835857): 5.53E-5 Molar | CC50 (SK-OV-3; SK-OV-3, 5-dose): < 100 µM | Ki (hCA II): 48.2 µM | LC50 (NCI-H226; Homo sapiens, NCI-H226, NCI-H226, 5-dose): > 100 µM | GI50 (NCI-H226; Homo sapiens, NCI-H226, 5-dose): 10.2 µM | GI% (NCI-H226; NCI-H226, 10 μM): 85% | Growth Percent (NCI-H226; NCI-H226, 1.00E-5 Molar): 15.34% | LC50 (NCI-H226; NCI-H226, 5-dose): < 100 µM | TGI (NCI-H226; NCI-H226, 5-dose): 54.2 µM | TGI (NCI-H226; NCI-H226, 5-dose, listed as D - 835857): 5.42E-5 Molar | CC50 (SN12C): > 100 µM | CC50 (SN12C; SN 12 C): < 100 µM | GI50 (SN12C; SN 12 C): 11 µM
